Source: PMC6522510 (Nature Communications, 2019)
Counter-ions that a name gives are not always drawn. Like-named read-outs stand apart in the source and are kept apart here.

Key:
Parameters in all cases: species or system AML cell lines (8); Primary HTS, single concentration about 10 uM, Cell Titer Glo viability; log10 luminescence, per cent inhibition relative to cycloheximide control
Conditions in all cases: 72 h, relative to cycloheximide control, log10 luminescence, inhibitor
CMK = system: CMK
M07e = system: M07e
CHRF288-11 = system: CHRF288-11
MV4-11 = system: MV4-11
CMS = system: CMS
ML-2 = system: ML-2
MOLM-13 = system: MOLM-13
U937 = system: U937

| SMILES | CMK %inh (CMK; CMK %inh, 10 µM) | M07e %inh (M07e; M07e %inh, 10 µM) | CHRF288-11 %inh (CHRF288-11; CHRF288-11 %inh, 10 µM) | MV4-11 %inh (MV4-11; MV4-11 %inh, 10 µM) | CMS %inh (CMS; CMS %inh, 10 µM) | ML-2 %inh (ML-2; ML-2 %inh, 10 µM) | MOLM-13 %inh (MOLM-13; MOLM-13 %inh, 10 µM) | U937 %inh (U937; U937 %inh, 10 µM) | CMK %inh (CMK) | M07e %inh (M07e) | CHRF288-11 %inh (CHRF288-11) | MV4-11 %inh (MV4-11) | CMS %inh (CMS) | ML-2 %inh (ML-2) | MOLM-13 %inh (MOLM-13) | U937 %inh (U937) |
| --- | --- | --- | --- | --- | --- | --- | --- | --- | --- | --- | --- | --- | --- | --- | --- | --- |
| C[C@@H]1CN(c2c(F)c(N)c3c(=O)c(C(=O)O)cn(C4CC4)c3c2F)C[C@H](C)N1 [SJ000556731-1, SPARFLOXACIN] | -4.344% | -0.05975% | -1.018% | 7.588% | -1.257% | 2.718% | -3.504% | 1.66% |  |  |  |  |  |  |  |  |
| C[C@@H]1CN(c2c(F)c(N)c3c(=O)c(C(=O)O)cn(C4CC4)c3c2F)C[C@H](C)N1 [SJ000556731-2, SPARFLOXACIN] | 6.161% | -2.464% | 0.9037% | 1.115% | -0.1151% | 2.462% | 6.829% | 3.77% |  |  |  |  |  |  |  |  |
| C=CC[N+]1([C@H]2C[C@H]3[C@@H]4CC[C@H]5C[C@H](O)[C@@H](N6CCOCC6)C[C@]5(C)[C@H]4CC[C@]3(C)[C@H]2OC(C)=O)CCCC1 [SJ000556732-1, ROCURONIUM BROMIDE] |  |  |  |  |  |  |  |  | -9.307% | -1.372% | -4.633% | 0.4653% | -2.237% | -0.2233% | -4.64% | -2.855% |
| O=C(O[C@H]1C[C@H]2CC[C@@H](C1)[N+]21CCCC1)C(O)(c1ccccc1)c1ccccc1 [SJ000556733-1, TROSPIUM CHLORIDE] | -8.303% | 0.3246% | 1.082% | -0.2163% | 1.711% | 2.085% | -2.987% | -2.05% |  |  |  |  |  |  |  |  |
| O=C(O[C@H]1C[C@H]2CC[C@@H](C1)[N+]21CCCC1)C(O)(c1ccccc1)c1ccccc1 [SJ000556733-2, TROSPIUM CHLORIDE] | -0.8375% | 4.258% | 0.2164% | 1.274% | -2.193% | 4.125% | 0.236% | -0.2464% |  |  |  |  |  |  |  |  |
| Cc1cn([C@@H]2C[C@@H](O)[C@H](CO)O2)c(=O)[nH]c1=O [SJ000556735-1, TELBIVUDINE] |  |  |  |  |  |  |  |  | -3.078% | 0.6931% | 5.146% | 3.878% | -2.406% | 2.339% | -1.046% | 2.103% |
| CO[C@H]1/C=C/O[C@@]2(C)Oc3c(C)c(O)c4c(O)c(c(/C=N/N5CCN(C6CCCC6)CC5)c(O)c4c3C2=O)NC(=O)/C(C)=C\C=C\[C@H](C)[C@H](O)[C@@H](C)[C@@H](O)[C@@H](C)[C@H](OC(C)=O)[C@@H]1C [SJ000556738-1, RIFAPENTINE] | -0.8493% | 1.814% | -0.1419% | 4.97% | 9.958% | 6.792% | 5.251% | 33.42% |  |  |  |  |  |  |  |  |
| CO[C@H]1/C=C/O[C@@]2(C)Oc3c(C)c(O)c4c(O)c(c(/C=N/N5CCN(C6CCCC6)CC5)c(O)c4c3C2=O)NC(=O)/C(C)=C\C=C\[C@H](C)[C@H](O)[C@@H](C)[C@@H](O)[C@@H](C)[C@H](OC(C)=O)[C@@H]1C [SJ000556738-2, RIFAPENTINE] | -1.103% | 2.598% | -2.807% | 5.68% | 24.93% | 7.469% | 7.481% | 26.01% |  |  |  |  |  |  |  |  |
| C[C@@H]1C[C@H]2[C@@H]3C[C@H](F)C4=CC(=O)C=C[C@]4(C)[C@@]3(F)[C@@H](O)C[C@]2(C)[C@@]1(OC(=O)c1ccco1)C(=O)SCF [SJ000556747-1, FLUTICASONE FUROATE] |  |  |  |  |  |  |  |  | 4.028% | 0.03036% | 5.244% | 10.07% | 42.17% | 5.949% | 2.731% | 15.51% |
| Cc1c(F)c(N2CCNC(C)C2)cc2c1c(=O)c(C(=O)O)cn2C1CC1 (centres unmarked) [SJ000556748-1, GREPAFLOXACIN] |  |  |  |  |  |  |  |  | -2.149% | -0.4769% | 7.335% | -0.8156% | -1.062% | -2.485% | 27.08% | 0.03292% |
| Nc1nc(=O)n([C@@H]2CS[C@H](CO)O2)cc1F [SJ000556750-1, EMTRICITABINE] |  |  |  |  |  |  |  |  | 2.775% | -0.1929% | 2.371% | -2.268% | -3.992% | 2.01% | 20.59% | -2.394% |
| CCOCCn1c(N2CCCN(C)CC2)nc2ccccc21 [SJ000556751-1, EMEDASTINE DIFUMARATE] |  |  |  |  |  |  |  |  | -0.9686% | 0.9271% | -0.4103% | -1.235% | -0.1534% | 1.809% | 8.131% | 0.3803% |
| CCCCc1ncc(/C=C(\Cc2cccs2)C(=O)O)n1Cc1ccc(C(=O)O)cc1 [SJ000556755-1, EPROSARTAN MESYLATE] |  |  |  |  |  |  |  |  | 1.513% | 2.786% | 1.693% | -5.649% | 2.254% | 1.173% | -0.5594% | 2.452% |
| CO/N=C1\CN(c2nc3c(cc2F)c(=O)c(C(=O)O)cn3C2CC2)CC1CN (centres unmarked) [SJ000556758-1, GEMIFLOXACIN MESILATE] |  |  |  |  |  |  |  |  | 10.74% | 5.532% | 4.811% | 8.469% | 4.675% | 0.2536% | 8.66% | 9.491% |
| CCCCCCCN(CC)CCCC(O)c1ccc(NS(C)(=O)=O)cc1 (centres unmarked) [SJ000556760-1, IBUTILIDE FUMARATE] |  |  |  |  |  |  |  |  | 2.977% | 2.78% | 6.024% | 3.1% | 0.3403% | -1.379% | 2.626% | 0.6889% |
| COC(C)(C)CCCC(C)C/C=C/C(C)=C/C(=O)O (centres unmarked) [SJ000561041-1, METHOPRENE ACID] |  |  |  |  |  |  |  |  | 2.394% | -0.2291% | 30.54% | 6.95% | -2.29% | -0.2588% | -0.01315% | 1.555% |
| O=Cc1c2[nH]c3ccccc3c2cc2[nH]c3ccccc3c12 [SJ000561043-1, 6-FORMYLINDOLO [3,2-B] CARBAZOLE] |  |  |  |  |  |  |  |  | 0.1175% | 3.515% | 8.34% | 15.88% | 2.828% | 1.695% | 1.501% | -0.0231% |
| CC(C)(O)[C@H]1O[C@H]2CC[C@@]3(C)[C@@](O)(CC[C@H]4Cc5c([nH]c6ccccc56)[C@@]43C)C2=CC1=O [SJ000561050-1, PAXILLINE] |  |  |  |  |  |  |  |  | 7.96% | -0.09318% | 3.611% | 1.599% | 1.09% | 3.934% | 2.78% | 7.084% |
| CC(C)[C@@H](O)CC[C@@H](C)[C@H]1CC[C@H]2[C@@H]3CC=C4C[C@@H](O)CC[C@]4(C)[C@H]3CC[C@]12C [SJ000561051-1, 24(S)-HYDROXYCHOLESTEROL] |  |  |  |  |  |  |  |  | -0.3911% | -2.462% | -3.422% | -0.7822% | -2.331% | 0.6767% | -1.323% | -0.5103% |
